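Interpolation was linear, between the two tested concentrations surrounding the appropriate level; five concentrations were tested over 48 hours in 96-well plates. The concentration for 50% growth inhibition is given as GI50. TGI denotes the concentration required for complete inhibition of growth.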 A value given as a limit tells only on which side of the number the result lay.

Some test systems named below: MALME-3M melanoma; U251 CNS; SF-295 CNS; SR leukemia; LOX IMVI melanoma; A549 NSCLC; CCRF-CEM leukemia; NCI-H23 lung; RXF 393 renal; HCT-116 colon.
Holding throughout (test): inhibition of tumour cell growth, NCI panel, 48 h

As for `COc1cc(N)ccc1Nc1c2ccccc2nc2ccccc12`, the GI50 with MALME-3M melanoma was 14.6 µM; in the assay with U251 CNS it was 4.39 µM; with SF-295 CNS, 12 µM; with SR leukemia it was 2.11 µM; in the assay with LOX IMVI melanoma, 5.27 µM; in the assay with A549 NSCLC, 4.32 µM. The GI50 with CCRF-CEM leukemia was 3.73 µM; with NCI-H23 lung it was 15 µM; in the assay with RXF 393 renal it was 11.5 µM; with HCT-116 colon, 2.51 µM. Besides, the TGI in the assay with MALME-3M melanoma was 35.1 µM; with U251 CNS, 11.5 µM; in the assay with SF-295 CNS it was 30.1 µM; in the assay on SR leukemia it was above 32.5 µM; in the assay on LOX IMVI melanoma, 35.4 µM; in the assay on A549 NSCLC, 24.9 µM. The TGI with CCRF-CEM leukemia was above 100 µM; with NCI-H23 lung, 45.2 µM; in the assay with RXF 393 renal, 27 µM; with HCT-116 colon it was 7.63 µM.

As to `Cc1ccc(NC(=O)/C(=N/NC(=O)CC#N)C2C(=O)N(c3ccccc3)N=C2N)cc1C` (stereo not given), the TGI in the assay on MALME-3M melanoma, with U251 CNS, in the assay with SF-295 CNS, with SR leukemia, with LOX IMVI melanoma and in the assay on A549 NSCLC was above 100 µM throughout. For the same compound, the TGI in the assay with CCRF-CEM leukemia, in the assay on NCI-H23 lung, in the assay with RXF 393 renal and in the assay on HCT-116 colon was above 100 µM each time.

As to `CN1CCN(Cc2ccc(NC(=O)c3[nH]ncc3Nc3ccnc4ccsc34)cc2)CC1`, the GI50 is 3.44 µM with MALME-3M melanoma; 2.4 µM in the assay on U251 CNS; 3.73 µM in the assay with SF-295 CNS; 1.92 µM with SR leukemia; 1.33 µM with LOX IMVI melanoma; 3.04 µM with A549 NSCLC. The GI50 in the assay on CCRF-CEM leukemia was 2.45 µM; with NCI-H23 lung, 2.03 µM; in the assay with RXF 393 renal, 2.01 µM; with HCT-116 colon it was 1.51 µM. The TGI with MALME-3M melanoma turned out to be 13.7 µM; in the assay on U251 CNS it was 13.6 µM; in the assay on SF-295 CNS it was 14.2 µM; in the assay with SR leukemia, 7 µM; in the assay on LOX IMVI melanoma, 4.59 µM; in the assay on A549 NSCLC it was 14.5 µM. The TGI was 9.26 µM with CCRF-CEM leukemia, 6.64 µM in the assay with NCI-H23 lung, 4.76 µM in the assay with RXF 393 renal and 11.7 µM in the assay on HCT-116 colon.

Regarding `C=C1C(=O)O[C@H]2[C@H]1CC/C(COC(=O)N[C@@H](Cc1c[nH]c3ccccc13)C(=O)OC)=C\CC[C@@]1(C)O[C@@H]21`, the GI50 with MALME-3M melanoma was 1.51 µM; in the assay with U251 CNS, 2.42 µM; with SF-295 CNS it was 9.4 µM; in the assay with SR leukemia, 0.262 µM; in the assay on LOX IMVI melanoma, 1.16 µM; in the assay with A549 NSCLC, 9.94 µM. Besides, the GI50 is 0.621 µM with CCRF-CEM leukemia, 1.84 µM in the assay with NCI-H23 lung, 0.998 µM with RXF 393 renal and 1.25 µM in the assay on HCT-116 colon. The TGI with MALME-3M melanoma was determined as 3.07 µM; in the assay with U251 CNS, 7.32 µM; with SF-295 CNS, 21.6 µM; with SR leukemia it was 1.51 µM; in the assay on LOX IMVI melanoma, 2.58 µM; in the assay on A549 NSCLC it was 24.3 µM. Also, the TGI in the assay on CCRF-CEM leukemia was 3.18 µM; in the assay with NCI-H23 lung it was 4.59 µM; with RXF 393 renal, 2.29 µM; in the assay on HCT-116 colon it was 2.79 µM.

Consider `C=C1C(=O)O[C@H]2[C@H]1CC/C(COC(=O)NCCc1c[nH]c3ccccc13)=C\CC[C@@]1(C)O[C@@H]21`, for which the GI50 with MALME-3M melanoma was 1.94 µM; with U251 CNS, 4.88 µM; in the assay on SF-295 CNS, 9.68 µM; in the assay on SR leukemia it was 1.07 µM; in the assay on LOX IMVI melanoma, 0.788 µM; in the assay on A549 NSCLC it was 10.7 µM. Also, the GI50 in the assay on CCRF-CEM leukemia was 0.362 µM; in the assay on NCI-H23 lung, 2.28 µM; in the assay on RXF 393 renal, 1.16 µM; with HCT-116 colon, 1.01 µM. Besides, the TGI in the assay with MALME-3M melanoma turned out to be 3.82 µM; with U251 CNS it was 17.1 µM; in the assay on SF-295 CNS it was 21.4 µM; in the assay with SR leukemia, 7.05 µM; in the assay with LOX IMVI melanoma it was 2.23 µM; in the assay with A549 NSCLC, 25.4 µM. The TGI in the assay with CCRF-CEM leukemia was 3.57 µM; in the assay on NCI-H23 lung, 6.81 µM; with RXF 393 renal it was 2.56 µM; with HCT-116 colon, 2.39 µM.

For the compound `Nc1nc(F)nc2c1ncn2C1OC(COP(=O)(O)O)C(O)C1O` (stereo not given), the TGI in the assay with MALME-3M melanoma was 254 µM; in the assay on U251 CNS it was above 1250 µM; with SF-295 CNS, 917 µM; in the assay on SR leukemia, above 621 µM; with LOX IMVI melanoma, 334 µM; in the assay on A549 NSCLC, 511 µM. The TGI in the assay on CCRF-CEM leukemia worked out at 202 µM; in the assay with NCI-H23 lung, 243 µM; with RXF 393 renal, 413 µM; in the assay on HCT-116 colon it was 325 µM.

`O=C1C(Br)=C(c2ccccc2)C(c2ccccc2)=C1c1ccccc1`: the TGI in the assay on MALME-3M melanoma was found to be 3.33 µM; with U251 CNS, 9.83 µM; with SF-295 CNS it was 23.5 µM; in the assay with SR leukemia, 3.78 µM; in the assay on LOX IMVI melanoma it was 2.94 µM; with A549 NSCLC it was 28.1 µM. Moreover, the TGI is 2.02 µM in the assay on CCRF-CEM leukemia, 10.5 µM in the assay on NCI-H23 lung, 3.92 µM in the assay with RXF 393 renal and 3.6 µM in the assay on HCT-116 colon.
